The test has as its target Human DAAO (Homo sapiens, UniProt P14920). Put plainly: D-Amino Acid Oxidase enzyme assay (D-serine, horseradish peroxidase/Amplex Red coupled fluorescence). The class given is biochemical. The conditions noted are these: D-serine 5 mM, pH 7.4. As to the method: DAAO enzyme activity was measured using the substrate D-serine at its Michaelis-Menton Km of 5 mM. The rate of oxidation is measured as a rate of production of hydrogen peroxide, which was detected using the enzyme horseradish peroxidase (Sigma cat. No. P-8375). This coupled reaction uses the enzyme substrate Amplex Red (Molecular Probes), which is converted to the fluorescent reaction product, resorufin (excitation 530-560 nm; emission ˜590 nm). Although DAAO has a higher pH optimum, all reagents were prepared in 50 mM sodium phosphate buffer at pH 7.4 and inhibition curves were generated at this pH.
The final concentrations of components in 200 μl total volume per well (black clear-bottom 96-well plate, Costar) were:
(a) Horseradish peroxidase: 4 Units per mL
(d) Amplex Red reagent: 50 uM
The reactions were initiated by addition of DAAO enzyme and the fluorescence was monitored. H2O2 was added at 16 uM final concentration to a control well on each plate to test for compound interference with a coupled enzyme. Inhibition curves were generated in the presence of varying concentrations of the inhibitor and IC50 values were calculated for each inhibitor.

A value given as a limit tells only on which side of the number the result lay.

Human DAAO, sequence (P14920 whole entry): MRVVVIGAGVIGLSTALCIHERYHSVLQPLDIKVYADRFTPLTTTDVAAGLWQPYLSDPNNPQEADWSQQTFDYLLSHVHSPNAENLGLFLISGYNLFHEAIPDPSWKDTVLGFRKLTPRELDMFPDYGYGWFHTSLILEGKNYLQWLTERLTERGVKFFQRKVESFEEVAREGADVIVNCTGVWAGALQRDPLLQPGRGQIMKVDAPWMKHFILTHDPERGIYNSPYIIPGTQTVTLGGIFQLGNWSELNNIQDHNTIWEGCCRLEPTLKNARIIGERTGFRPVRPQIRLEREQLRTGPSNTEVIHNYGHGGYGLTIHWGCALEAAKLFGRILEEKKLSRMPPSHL

`O=C(O)c1cc2c([nH]1)C(=O)CC2` [Compound 24, 6-oxo-1,4,5,6-tetrahydro-cyclopenta[b]pyrrole-2-carboxylic acid] yielded an IC50 of no more than 1 µM. Regarding `O=C(O)c1cc2c([nH]1)C(Cc1ccccc1)CC2` (centres unmarked) [Compound 26, 6-benzyl-1,4,5,6-tetrahydrocyclopenta[b]pyrrole-2-carboxylic acid], the IC50 was no more than 0.1 µM. The same measure for `O=C(O)c1cc2c([nH]1)C(CCc1ccccc1)CC2` (centres unmarked) [Compound 27, 6-phenethyl-1,4,5,6-tetrahydrocyclopenta[b]pyrrole-2-carboxylic acid]: no more than 1 µM; for `O=C(O)c1cc2c([nH]1)CCCC2` [Compound 30, 4,5,6,7-tetrahydro-1H-indole-2-carboxylic acid]: no more than 1 µM. The same measure for `Cc1c(C(=O)O)[nH]c2c1C(=O)CCC2` [Compound 31, 3-methyl-4-oxo-4,5,6,7-tetrahydro-1H-indole-2-carboxylic acid]: no more than 100 µM. With `O=C(O)c1cc2c([nH]1)CCCC2Cc1ccccc1` (centres unmarked) [Compound 32, 4-benzyl-4,5,6,7-tetrahydro-1H-indole-2-carboxylic acid] the figure was no more than 100 µM; with `CC(C)c1ccc(CC2CCc3[nH]c(C(=O)O)cc32)cc1` (centres unmarked) [Compound 33, 4-(4-isopropylbenzyl)-1,4,5,6-tetrahydrocyclopenta[b]pyrrole-2-carboxylic acid], no more than 1 µM; with `COc1ccc(CCC2CCc3[nH]c(C(=O)O)cc32)cc1` (centres unmarked) [Compound 34, 4-(4-methoxyphenethyl)-1,4,5,6-tetrahydrocyclopenta[b]pyrrole-2-carboxylic acid], no more than 100 µM. For the compound `CC(C)(CC1CCc2[nH]c(C(=O)O)cc21)c1ccccc1` (centres unmarked) [Compound 35, 4-(2-methyl-2-phenylpropyl)-1,4,5,6-tetrahydrocyclopenta[b]pyrrole-2-carboxylic acid], the IC50 is no more than 100 µM. `O=C(O)c1cc2c([nH]1)CCC2CCCc1ccccc1` (centres unmarked) [Compound 36, 4-(3-phenylpropyl)-1,4,5,6-tetrahydrocyclopenta[b]pyrrole-2-carboxylic acid] had an IC50 of no more than 1 µM. Take `Cc1ccc(C2CCc3[nH]c(C(=O)O)cc32)cc1` (centres unmarked) [Compound 37, 4-p-tolyl-1,4,5,6-tetrahydrocyclopenta[b]pyrrole-2-carboxylic acid]: the half-maximal inhibitory concentration (IC50) was no more than 1 µM.

`O=C(O)c1cc2c([nH]1)CCC2CC(F)(F)F` (centres unmarked) [Compound 38, 4-(2,2,2-trifluoroethyl)-1,4,5,6-tetrahydrocyclopenta[b]pyrrole-2-carboxylic acid] gave an IC50 of no more than 100 µM. With `O=C(O)c1cc2c([nH]1)CCC2Cc1cc(F)cc(Cl)c1` (centres unmarked) [Compound 55, 4-(3-chloro-5-fluorobenzyl)-1,4,5,6-tetrahydrocyclopenta[b]pyrrole-2-carboxylic acid] the figure was no more than 0.1 µM. `O=C(O)c1cc2c([nH]1)CCC2Cc1cccc(Cl)c1` (centres unmarked) [Compound 56, 4-(3-chlorobenzyl)-1,4,5,6-tetrahydrocyclopenta[b]pyrrole-2-carboxylic acid] came in with an IC50 of no more than 0.1 µM.

For `COc1ccc(CC2CCc3[nH]c(C(=O)O)cc32)cc1OC` (centres unmarked) [Compound 69, 4-(3,4-dimethoxybenzyl)-1,4,5,6-tetrahydrocyclopenta[b]pyrrole-2-carboxylic acid], the half-inhibitory concentration (IC50) was no more than 1 µM. Consider `Cc1ccc(CC2CCc3[nH]c(C(=O)O)cc32)cc1C` (centres unmarked) [Compound 71, 4-(3,4-dimethylbenzyl)-1,4,5,6-tetrahydrocyclopenta[b]pyrrole-2-carboxylic acid], for which the IC50 was no more than 1 µM. As for `Cc1cc(C)cc(CC2CCc3[nH]c(C(=O)O)cc32)c1` (centres unmarked) [Compound 72, 4-(3,5-dimethylbenzyl)-1,4,5,6-tetrahydrocyclopenta[b]pyrrole-2-carboxylic acid], the concentration for half-maximal inhibition (IC50) is no more than 100 µM. The same measure for `O=C(O)c1cc2c([nH]1)CCC2Cc1cccc(C2CC2)c1` (centres unmarked) [Compound 73, 4-(3-cyclopropylbenzyl)-1,4,5,6-tetrahydrocyclopenta[b]pyrrole-2-carboxylic acid]: no more than 0.1 µM; for `C#Cc1cccc(CC2CCc3[nH]c(C(=O)O)cc32)c1` (centres unmarked) [Compound 74, 4-(3-ethynylbenzyl)-1,4,5,6-tetrahydrocyclopenta[b]pyrrole-2-carboxylic acid]: no more than 0.1 µM; for `CC(=O)c1cccc(CC2CCc3[nH]c(C(=O)O)cc32)c1` (centres unmarked) [Compound 76, 4-(3-acetylbenzyl)-1,4,5,6-tetrahydrocyclopenta[b]pyrrole-2-carboxylic acid]: no more than 1 µM. On to `NC(=O)c1cccc(CC2CCc3[nH]c(C(=O)O)cc32)c1` (centres unmarked) [Compound 77, 4-(3-carbamoylbenzyl)-1,4,5,6-tetrahydrocyclopenta[b]pyrrole-2-carboxylic acid], for which the IC50 was no more than 1 µM. `O=C(O)c1cc2c([nH]1)CCC2Cc1ccc(-c2ccccc2)cc1` (centres unmarked) [Compound 81, 4-(biphenyl-4-ylmethyl)-1,4,5,6-tetrahydrocyclopenta[b]pyrrole-2-carboxylic acid]: the IC50 is no more than 1 µM. With `O=C(O)c1cc2c([nH]1)CCC2Cc1cccc(-c2ccccc2)c1` (centres unmarked) [Compound 82, 4-(biphenyl-3-ylmethyl)-1,4,5,6-tetrahydrocyclopenta[b]pyrrole-2-carboxylic acid] the figure was no more than 1 µM; with `O=C(O)c1cc2c([nH]1)CCC2Cc1cccc(-c2cccnc2)c1` (centres unmarked) [Compound 83, 4-(3-(pyridin-3-yl)benzyl)-1,4,5,6-tetrahydrocyclopenta[b]pyrrole-2-carboxylic acid], no more than 1 µM; with `O=C(O)c1cc2c([nH]1)CCC2Cc1cccc(-c2ccc(C(F)(F)F)cc2)c1` (centres unmarked) [Compound 84, 4-((4′-(trifluoromethyl)biphenyl-3-yl)methyl)-1,4,5,6-tetrahydrocyclopenta[b]pyrrole-2-carboxylic acid], no more than 1 µM. The same measure for `O=C(O)c1cc2c([nH]1)CCC2Cc1cccc(-c2ccc(O)cc2)c1` (centres unmarked) [Compound 85, 4-((4′-hydroxybiphenyl-3-yl)methyl)-1,4,5,6-tetrahydrocyclopenta[b]pyrrole-2-carboxylic acid]: no more than 100 µM; for `O=C(O)c1cc2c([nH]1)CCC2Cc1cccc(-c2ccc(CO)cc2)c1` (centres unmarked) [Compound 86, 4-((4′-(hydroxymethyl)biphenyl-3-yl)methyl)-1,4,5,6-tetrahydrocyclopenta[b]pyrrole-2-carboxylic acid]: no more than 1 µM. The same measure for `O=C(O)c1cc2c([nH]1)CCC2Cc1cccc(C2CCOC2)c1` (centres unmarked) [Compound 90, 4-(3-(tetrahydrofuran-3-yl)benzyl)-1,4,5,6-tetrahydrocyclopenta[b]pyrrole-2-carboxylic acid]: no more than 1 µM. As to `O=C(O)c1cc2c([nH]1)CCC2c1ccc(Cl)cc1` (centres unmarked) [Compound 101, 4-(4-chlorophenyl)-1,4,5,6-tetrahydrocyclopenta[b]pyrrole-2-carboxylic acid], the IC50 was no more than 0.1 µM.

As for `O=C(O)c1cc2c([nH]1)CCC2c1cccc(Cl)c1` (centres unmarked) [Compound 102, 4-(3-chlorophenyl)-1,4,5,6-tetrahydrocyclopenta[b]pyrrole-2-carboxylic acid], the IC50 is no more than 0.1 µM. For the compound `O=C(O)c1cc2c([nH]1)CCC2c1cccc(Br)c1` (centres unmarked) [Compound 103, 4-(3-bromophenyl)-1,4,5,6-tetrahydrocyclopenta[b]pyrrole-2-carboxylic acid], the IC50 is no more than 0.1 µM. For `Cc1cc(C)cc(C2CCc3[nH]c(C(=O)O)cc32)c1` (centres unmarked) [Compound 104, 4-(3,5-dimethylphenyl)-1,4,5,6-tetrahydrocyclopenta[b]pyrrole-2-carboxylic acid], the IC50 was no more than 100 µM. Compound `O=C(O)c1cc2c([nH]1)CCC2c1ccc(-c2ccccc2)cc1` (centres unmarked) [Compound 106, 4-(biphenyl-4-yl)-1,4,5,6-tetrahydrocyclopenta[b]pyrrole-2-carboxylic acid] gave an IC50 of no more than 100 µM. With `O=C(O)c1cc2c([nH]1)CCC2c1ccc(Cc2ccccc2)cc1` (centres unmarked) [Compound 107, 4-(4-benzylphenyl)-1,4,5,6-tetrahydrocyclopenta[b]pyrrole-2-carboxylic acid], the IC50 is no more than 1 µM.

Compound `O=C(O)c1cc2c([nH]1)CCC2NCc1ccc(Cl)cc1` (centres unmarked) [Compound 108, 4-(4-chlorobenzylamino)-1,4,5,6-tetrahydrocyclopenta[b]pyrrole-2-carboxylic acid] yielded an IC50 of no more than 100 µM. On to `CC1CCc2cc(C(=O)O)[nH]c21` (centres unmarked) [Compound 109, 6-methyl-1,4,5,6-tetrahydrocyclopenta[b]pyrrole-2-carboxylic acid], for which the IC50 was no more than 1 µM.

As to `CCCC1CCc2cc(C(=O)O)[nH]c21` (centres unmarked) [Compound 110, 6-propyl-1,4,5,6-tetrahydrocyclopenta[b]pyrrole-2-carboxylic acid], the IC50 was no more than 1 µM. The compound `O=C(O)c1cc2c([nH]1)C(c1cccc(F)c1)CC2` (centres unmarked) [Compound 111, 6-(3-fluorophenyl)-1,4,5,6-tetrahydrocyclopenta[b]pyrrole-2-carboxylic acid] yielded an IC50 of no more than 1 µM. `O=C(O)c1cc2c([nH]1)C(c1ccc(F)c(F)c1)CC2` (centres unmarked) [Compound 112, 6-(3,4-difluorophenyl)-1,4,5,6-tetrahydrocyclopenta[b]pyrrole-2-carboxylic acid] showed an IC50 of no more than 1 µM.

In turn, `O=C(O)c1cc2c([nH]1)C(c1ccc(Cl)cc1)CC2` (centres unmarked) [Compound 113, 6-(4-chlorophenyl)-1,4,5,6-tetrahydrocyclopenta[b]pyrrole-2-carboxylic acid] yielded an IC50 of no more than 1 µM.

`O=C(O)c1cc2c([nH]1)C(c1cccc(Cl)c1)CC2` (centres unmarked) [Compound 114, 6-(3-chlorophenyl)-1,4,5,6-tetrahydrocyclopenta[b]pyrrole-2-carboxylic acid] came in with an IC50 of no more than 1 µM.
